27 compounds from patent publication US7033772B1, “Methods of identifying inhibitors of fatty acid transport proteins (FATP)” (Millennium Pharmaceuticals, Inc., priority 1998, dated 2006) can be followed below.

One data set has as its target T1, FATP4 (Homo sapiens, UniProt Q6P1M0).
T1 construct: expressed in transfected cells; host or cells: 293 cells (human kidney), stably transfected with pIRES-neo-hsFATP4, G418-selected
Put plainly: Competition of Bodipy-FA uptake by FATP4 expressing cells (FACS). Format: cell-based. As to conditions: for inhibition at 100 µM: read-out: Competition (inhibition of Bodipy-FA uptake). As for the experimental part: Bodipy-FA uptake assays using FACS were performed, adapted to a 96-well format. LCFA uptake assays with enterocytes or with stably transfected 293 cells were done as follows. Mixed micelles of radiolabeled FA (NEN) and taurocholate (Sigma) in HBS were generated by brief sonication at 37° C. […] Final taurocholate concentration was 5 mM. Cells were incubated for the indicated amount of time at 37° C. The assay was stopped by transferring the cells onto filter paper followed by extensive washes with ice-cold HBS containing 0.1% BSA using a cell harvester (Brandell). Incorporated oleate was then determined by β-scintillation counting (Beckman).

A further data set has as its system 293 cells. Put plainly: Uptake of radiolabeled substrates by control (vector) 293 cells. Format: cell-based, human. As to conditions: 10 μM substrate in HBS with 5 mM taurocholate; rate over 4 min. As for the experimental part:
(§1) Several of the cell lines with the highest amount of Bodipy-FA uptake as well as isolated primary enterocytes were used to measure the uptake of radiolabeled FAs.
(§2) Bodipy-FA uptake assays using FACS were performed, adapted to a 96-well format. LCFA uptake assays with enterocytes or with stably transfected 293 cells were done as follows. Mixed micelles of radiolabeled FA (NEN) and taurocholate (Sigma) in HBS were generated by brief sonication at 37° C. Equal volumes of cells and micelle solution were mixed, resulting in a final FA concentration of 25 μM for antisense assays and 10 μM for substrate specificity assays. Final taurocholate concentration was 5 mM. Cells were incubated for the indicated amount of time at 37° C. The assay was stopped by transferring the cells onto filter paper followed by extensive washes with ice-cold HBS containing 0.1% BSA using a cell harvester (Brandell). Incorporated oleate was then determined by β-scintillation counting (Beckman).

The next data set concerns the target T2, hsFATP4 (Homo sapiens, UniProt Q6P1M0).
T2 construct: expressed in transfected cells; host or cells: 293 cells (human kidney), stably transfected with pIRES-neo-hsFATP4, G418-selected
Put plainly: Uptake of radiolabeled substrates by 293 cells stably expressing FATP4. Format: cell-based. As to conditions: for Uptake, 293 Cells Stably Expressing FATP4: 10 μM substrate in HBS with 5 mM taurocholate, rate over 4 min; for Uptake, FATP4 specific: FATP4-expressing minus control 293 cells, 10 μM substrate, 5 mM taurocholate; for Effect of hsFATP4 expression on uptake of the substrate (in words): stably transfected 293 cells vs vector. On the procedure:
Using a mammalian expression vector, we generated 40 stable […] cell lines expressing hsFATP4 and 20 cell lines transfected with a control plasmid.
as §1, §2

Data set [1] concerns enterocytes. Put plainly: Uptake of radiolabeled substrates by isolated primary enterocytes. Format: cell-based, mouse. As to conditions: for Uptake, Enterocytes: 10 μM substrate in HBS with 5 mM taurocholate, rate over 4 min; for Transport of the substrate by isolated primary enterocytes (in words): compared with transfected 293 cells. On the procedure: as §1, §2
Another data set has as its system FATP4 mRNA. Put plainly: Oleate uptake by isolated mouse enterocytes after incubation with FATP4 oligonucleotides. Format: cell-based. As to conditions: 100 μM oligonucleotide; for Inhibition of fatty acid (oleate) uptake over time: 48 h, 25 μM oleate, FIG. 40.
In data set [2] the test system is enterocytes. Put plainly: 35S-methionine uptake by cultured enterocytes after oligonucleotide treatment (specificity control). Format: cell-based, mouse. As to conditions: 100 μM oligonucleotide, 48 h; FIG. 42. As for the experimental part:
As a further control experiment, the uptake of oleate was measured along with the uptake of methionine in the same cultured enterocytes. Antisense oligonucleotide, mismatch sequence oligonucleotide, or no oligonucleotide was added to a concentration of 100 μM to cultures of enterocytes. After incubation for 48 hours, the uptake of both ^3H-labeled oleate and ^35S-labeled methionine was assayed. Fatty acid uptake is at the left side of the paired bars; methionine uptake is on the right side of the paired bars.

Setting [3] is: 5 μM Bodipy-FA, 100 μM competitor (20-fold molar excess), 100% = effect of 200 μM lauric acid.

Like-named read-outs stand apart in the source and are kept apart here.

T1 sequence (Q6P1M0 whole entry): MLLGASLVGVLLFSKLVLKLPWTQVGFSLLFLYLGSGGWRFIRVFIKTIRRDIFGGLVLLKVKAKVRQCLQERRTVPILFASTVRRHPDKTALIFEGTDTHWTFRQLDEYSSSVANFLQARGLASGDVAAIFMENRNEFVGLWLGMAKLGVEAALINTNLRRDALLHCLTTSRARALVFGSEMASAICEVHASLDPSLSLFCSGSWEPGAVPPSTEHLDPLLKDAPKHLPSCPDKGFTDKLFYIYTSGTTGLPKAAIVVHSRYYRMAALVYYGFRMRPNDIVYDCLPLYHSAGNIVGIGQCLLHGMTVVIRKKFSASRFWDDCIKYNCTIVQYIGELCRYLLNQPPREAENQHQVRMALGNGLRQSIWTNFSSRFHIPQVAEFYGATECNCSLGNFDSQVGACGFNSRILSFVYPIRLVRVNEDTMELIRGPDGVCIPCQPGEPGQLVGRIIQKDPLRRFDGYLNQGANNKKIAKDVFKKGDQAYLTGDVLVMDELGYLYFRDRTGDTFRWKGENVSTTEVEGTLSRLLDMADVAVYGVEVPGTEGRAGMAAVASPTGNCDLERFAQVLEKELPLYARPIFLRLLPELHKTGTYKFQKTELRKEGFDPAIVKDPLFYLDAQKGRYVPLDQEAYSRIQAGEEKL
T2 sequence (Q6P1M0 whole entry): as above

For `CCCCCCCCCCCCCCCCCCCCCCCC(=O)O` [Lignoceric Acid], the inhibition – broadly, the relative decrease from the control value, in per cent – at 100 µM at FATP4 was in the range of 70 to 100%.

Take `CCCCCC(=O)O` [Caproic Acid]: on FATP4, the inhibition at 100 µM lay in the range of 0 to 30%.

As for `CCCCCCCC/C=C\CCCCCCCC(=O)O` [Oleate, Oleic Acid], on FATP4 (setting [3]), the “Competition (inhibition of Bodipy-FA uptake)” value is “++ (70%-100% inhibition)”. Further, the “Uptake, 293 Cells Control” value in the data set on 293 cells is 662 pmol/min 10^6 cells. Besides, on hsFATP4, the “Uptake, 293 Cells Stably Expressing FATP4” value was found to be 1122 pmol/min 10^6 cells; the “Uptake, FATP4 specific” value is reported as 459 pmol/min 10^6 cells; the “Effect of hsFATP4 expression on uptake of the substrate (in words)” value (“Effect of hsFATP4 expression” for short) is “accelerated the uptake”. Also, in the data set with enterocytes [1], the “Uptake, Enterocytes” value is 117 pmol/min 10^6 cells and the “Transport of the substrate by isolated primary enterocytes (in words)” value (from here on “Transport of the substrate”) was “preference”.

Take `CCCCCCCCCCCCCC(=O)O` [Myristic Acid]: on FATP4, the inhibition at 100 µM was 70 to 100%.

Take `CCCCC/C=C\C/C=C\C/C=C\C/C=C\CCCC(=O)O` [Arachidonate]: in the data set with 293 cells, the “Uptake, 293 Cells Control” value came to 3 pmol/min 10^6 cells. Also, the “Uptake, Enterocytes” value with enterocytes [1] came to 0 pmol/min 10^6 cells.

In the case of `CCCCCCCCCCCCCCCCCCCCCCCCCC(=O)O` [Cerotic Acid], the inhibition at 100 µM on FATP4 (setting [3]) lay in the range of 70 to 100%.

For `CCCCCCCC(=O)O` [Octanoate, Caprylic Acid], on FATP4, the inhibition at 100 µM was 0 to 30%. In addition, the “Uptake, 293 Cells Control” value in the data set on 293 cells turned out to be 0 pmol/min 10^6 cells. Also, on hsFATP4, the “Uptake, 293 Cells Stably Expressing FATP4” value amounted to 0 pmol/min 10^6 cells; the “Uptake, FATP4 specific” value stood at 0 pmol/min 10^6 cells; the “Effect of hsFATP4 expression” value was “not”. Moreover, in the data set on enterocytes [1], the “Uptake, Enterocytes” value was determined as 5 pmol/min 10^6 cells and the “Transport of the substrate” value was “absence of transport”.

`CCCCCCCCCC(=O)O` [Capric Acid]: the inhibition at 100 µM at FATP4 (setting [3]) was in the range of 70 to 100%.

For the compound `CCCCCCCCCCCCCCCC(=O)O` [Palmitate, Palmitic Acid], the inhibition at 100 µM on FATP4 (setting [3]) lay within 70 to 100%. For the same compound, in the data set on 293 cells, the “Uptake, 293 Cells Control” value turned out to be 564 pmol/min 10^6 cells. On hsFATP4, the “Uptake, 293 Cells Stably Expressing FATP4” value turned out to be 1695 pmol/min 10^6 cells and the “Uptake, FATP4 specific” value came to 1131 pmol/min 10^6 cells. The “Enhancement of rate of uptake by hsFATP4 expression over 293 cells transfected with vector alone” value at hsFATP4 (stably transfected 293 cells, FIG. 97) is on record as “approximately 3 fold”. Also, in the data set on enterocytes [1], the “Uptake, Enterocytes” value amounted to 3036 pmol/min 10^6 cells and the “Transport of the substrate” value is “preference”.

On to `CC(C)CCC[C@@H](C)[C@H]1CC[C@H]2[C@@H]3CC=C4C[C@@H](O)CC[C@]4(C)[C@H]3CC[C@]12C` [Cholesterol], for which, in the data set with 293 cells, the “Uptake, 293 Cells Control” value stood at 319 pmol/min 10^6 cells. In addition, on hsFATP4, the “Uptake, 293 Cells Stably Expressing FATP4” value turned out to be 345 pmol/min 10^6 cells; the “Uptake, FATP4 specific” value was found to be 26 pmol/min 10^6 cells; the “Effect of hsFATP4 expression” value is recorded as “not”. Moreover, in the data set on enterocytes [1], the “Uptake, Enterocytes” value is on record as 531 pmol/min 10^6 cells and the “Transport of the substrate” value is listed as “more robust transport”.

As for `CCCCC/C=C\C/C=C\CCCCCCCC(=O)O` [Linolate, Linoleic Acid], at FATP4 (setting [3]), the inhibition at 100 µM lay in the range of 70 to 100%. Moreover, the “Uptake, 293 Cells Control” value in the data set on 293 cells amounted to 640 pmol/min 10^6 cells. Also, on hsFATP4, the “Uptake, 293 Cells Stably Expressing FATP4” value is 673 pmol/min 10^6 cells; the “Uptake, FATP4 specific” value is given as 33 pmol/min 10^6 cells; the “Effect of hsFATP4 expression” value was “not”. In the data set with enterocytes [1], the “Uptake, Enterocytes” value came to 116 pmol/min 10^6 cells and the “Transport of the substrate” value was “more robust transport”.

Take `CCCCCCCCCCCCCCCCCCCC(=O)O` [Arachidic Acid]: at FATP4 (setting [3]), the inhibition at 100 µM fell in the range of 70 to 100%.

For `CCCCCCCC/C=C\CCCCCCCC(=O)O[C@H]1CC[C@@]2(C)C(=CC[C@H]3[C@@H]4CC[C@H]([C@H](C)CCCC(C)C)[C@@]4(C)CC[C@@H]32)C1` [Cholesteryl Oleate], the “Competition (inhibition of Bodipy-FA uptake)” value at FATP4 (setting [3]) was “− (0%-30% inhibition by the indicated substance)”.

Take “Ergocalciferol [Ergocalciferol (Vitamin D2)]”: the “Competition (inhibition of Bodipy-FA uptake)” value on FATP4 (setting [3]) was “− (0%-30% inhibition by the indicated substance)”.

Regarding `CCCC(=O)O` [Butyrate, Butyric Acid], the “Uptake, 293 Cells Control” value in the data set on 293 cells amounted to 0 pmol/min 10^6 cells. Also, in the data set on enterocytes [1], the “Uptake, Enterocytes” value turned out to be 73 pmol/min 10^6 cells and the “Transport of the substrate” value is on record as “absence of transport”.

Consider `CCCCC[C@H](O)/C=C/[C@H]1[C@H](O)CC(=O)[C@@H]1C/C=C\CCCC(=O)O` [Prostaglandin E2], for which, at FATP4 (setting [3]), the “Competition (inhibition of Bodipy-FA uptake)” value is on record as “− (0%-30% inhibition by the indicated substance)”.

“FATP4-S2: Sense control oligo GGAGCCTCTCTGGTGGGGG (SEQ ID NO:105) (chemistry not given here)”: in the data set with FATP4 mRNA, the “Inhibition of fatty acid (oleate) uptake over time” value is “did not significantly influence the uptake”.

As for `CCCCCCCC/C=C\CCCCCCCC(=O)OCC` [Oleic Acid Ethyl Ester], at FATP4 (setting [3]), the inhibition at 100 µM is 0 to 30%.

With `CC1=C(/C=C/C(C)=C/C=C/C(C)=C/C(=O)O)C(C)(C)CCC1` [Retinoic Acid (Pro-Vitamin A), Retinoic Acid], the inhibition at 100 µM on FATP4 (setting [3]) was 30 to 50%.

On to `CCCCCCCC/C=C\CCCCCCCCOC(=O)CCCCCCC/C=C\CCCCCCCC` [Oleic Acid Oley Ester], for which, on FATP4 (setting [3]), the “Competition (inhibition of Bodipy-FA uptake)” value was “− (0%-30% inhibition by the indicated substance)”.

Regarding Tocopherol [Tocopherol (Vitamin E)], on FATP4 (setting [3]), the “Competition (inhibition of Bodipy-FA uptake)” value was “− (0%-30% inhibition by the indicated substance)”.

Regarding `CCCCCCCC/C=C\CCCCCCCC(=O)SCCNC(=O)CCNC(=O)[C@H](O)C(C)(C)COP(=O)(O)OP(=O)(O)OC[C@H]1O[C@@H](n2cnc3c(N)ncnc32)[C@H](O)[C@@H]1OP(=O)(O)O` [Oleoyl CoA], the inhibition at 100 µM on FATP4 (setting [3]) fell in the range of 0 to 30%.

Take `CC1=C(C/C=C(\C)CCC[C@H](C)CCC[C@H](C)CCCC(C)C)C(=O)c2ccccc2C1=O` [3-Phytylamenadione (Vitamin K1), 3-Phytylamenadione]: the “Competition (inhibition of Bodipy-FA uptake)” value at FATP4 (setting [3]) was “− (0%-30% inhibition by the indicated substance)”.

Consider `CCCCCCCCCCCCCCCCCC(=O)O` [Stearic Acid], for which the inhibition at 100 µM at FATP4 (setting [3]) lay in the range of 50 to 70%.

Turning to “FATP4-AS2: Antisense oligo CCCCCACCAGAGAGGCTCC (SEQ ID NO:103), complementary to nucleotides 10 to 28 of the mouse FATP4 coding sequence (chemistry not given here)”, in the data set on FATP4 mRNA, the “Inhibition of fatty acid (oleate) uptake over time” value is reported as around 50%. In the data set with FATP4 mRNA (48 h incubation, FIG. 41), the “Inhibition of oleate uptake over a 5 minute interval” value was around 50%. Further, the “Methionine (amino acid) uptake” value in the data set with enterocytes [2] was “not influenced”.

As for `CCCCCCCCCCCCCCCC(=O)OC` [Palmitic Acid Methyl Ester], the inhibition at 100 µM at FATP4 (setting [3]) was 0 to 30%.

In the case of `CCCCCCCCCCCCCCCCCC(=O)OC` [Stearic Acid Methyl Ester], the inhibition at 100 µM at FATP4 is 0 to 30%.
